Experimental findings from patent US20160272937A1, “METHODS OF GENERATING INTERMEDIATE MESODERM CELLS FROM HUMAN PLURIPOTENT STEM CELLS” (THE BRIGHAM AND WOMEN'S HOSPITAL, INC., priority 2013, published 2016) are described below.

The subject of assay [1] is hPSCs (hESC and hiPSC lines). The assay can be described thus: Intermediate mesoderm differentiation: PAX2/LHX1 immunostaining. Type of assay: cell-based, human. The following applies: CHIR pre-treatment 48 hours compared to 24 or 36 hours, all time points. On the procedure: Mesendoderm differentiation—the media is changed to Advanced RPMI (A-RPMI, Invitrogen) supplemented with 1×L-glutamax and 1× penicillin/streptomycin and either CHIR99021 (CHIR, Stemgent), human Wnt3a (R&D systems), and/or human activin A (R&D systems) at the doses described. Definitive endoderm differentiation—cells are treated with A-RPMI+1×L-glu+1×P/S+5 μM CHIR for 24 hours, then A-RPMI+1×Lglu+1×P/S+100 ng/mL of activin A for 2-3 days. Hepatic differentiation—cells at the definitive endoderm stage are treated with A-RPMI+1×L-glu+1×P/S+1×B27 supplement (Invitrogen)+20 ng/mL BMP-4 (R&D systems)+10 ng/mL FGF2 (Invitrogen) for 5 days, then A-RPMI+1×L-glu+1×P/S+1×B27+10 ng/mL HGF for 5 days, then HCM Hepatocyte Culture Medium (Lonza) supplemented with 20 ng/mL Oncostatin M and 10 ng/mL HGF (Peprotech) for 5 days. Pancreatic differentiation—cells at the definitive endoderm stage are treated with DMEM/F12+2% FBS (Hyclone)+50 ng/mL FGF7 (R&D systems) for 2 days, then high-glucose DMEM (Mediatech)+1% B27+2 μM retinoic acid (Sigma)+0.25 μM KAAD cyclopamine (EMD Millipore)+100 ng/mL recombinant human Noggin (R&D systems) for 4 days, then high-glucose DMEM+1% B27+100 ng/mL Noggin+300 nM indolactam V (Stemgent)+1 μM ALK5 inhibitor II (Axxora) for 4 days. Anterior foregut endoderm differentiation—cells at the definitive endoderm stage are treated with DMEM/F12+1×L-glu+1×B27+200 ng/mL Noggin+10 μM SB431542 (Stemgent) for 3 days. For hindgut endoderm differentiation, cells at the definitive endoderm stage were treated with A-RPMI+1×L-glu+1×P/S+2% FBS+500 ng/mL FGF4 (R&D systems)+5 μM CHIR for 4 days. […]
Nuclei can be counterstained with DAPI (Sigma). […] Immunofluorescence is visualized using an inverted fluorescence microscope (Nikon Eclipse Ti, Tokyo, Japan). Quantification is performed by counting a minimum of five random fields at 10× magnification. […]

For another assay, the system named is hPSC-derived SIX2+ cells. The assay can be described thus: Response of hPSC-derived SIX2+ cells to canonical Wnt signaling (CHIR). The format is cell-based, human. The protocol: To test the competence of hPSC-derived SIX2+ cells to respond to canonical Wnt signaling, the Inventors treated cells on day 6 of differentiation with […] CHIR for 24 hours, followed by withdrawal of CHIR. […] Furthermore, hPSC-derived SIX2+ cells explanted into dissociated-reaggregated mouse embryonic kidneys formed organizing clusters of cells that expressed LTL (FIG. 7I). The Inventors therefore concluded that the ability of hPSCderived PAX2+LHX1+ cells to be differentiated into cells expressing multiple markers of kidney CMand that could form tubule like structures in response to Wnt signaling was consistent with the behavior and function of nephrogenic IM cells.

The mark [2] stands for this setting: 5 mM CHIR for 24 hours on day 6, read on day 8, compared with cells not treated with CHIR.

Take `Cc1c[nH]c(-c2cnc(NCCNc3ccc(C#N)cn3)nc2-c2ccc(Cl)cc2Cl)n1` [CHIR99021]: the PAX2 expression result in assay [1] was “less PAX2 expression”. Also, in the assay on hPSC-derived SIX2+ cells (setting [2]), the SIX2 expression entry is recorded as “downregulation of SIX2 expression” and the “expression of proximal tubule marker LTL” value is “increased expression”. Further, in the assay on hPSC-derived SIX2+ cells (within 24 hours of 5 mM CHIR treatment), the cell morphology result is recorded as “formation of tubular-like structures”.
